Laboratory results reported in patent US10526297B2, “Benzylideneguanidine derivatives and therapeutic use for the treatment of protein misfolding diseases” (United Kingdom Research and Innovation, priority 2013, dated 2020).
Read-outs that look alike come from different tables or passages of the source.

How the values were obtained:
HeLa cells [1] = assay: Assessment of Translation Rates in Unstressed Cells (Test 2); format: cell-based; conditions: compounds 50 μM, 0.5-7.5 h, 35S-methionine labelling
Protocol: Following labelling, cells were washed with ice-cold PBS and lysed in 75 μl Laemmli Buffer. […] Gels were then stained with Coomassie Brilliant Blue R-250 and analyzed by phosphorimaging.

PPP1R15A or PPP1R15B = assay: Selectivity assessment inferred from the tests; format: cell-based; conditions: inferred from translation inhibition in stressed/non-stressed cells
HeLa cells [2] = assay: Cytoprotection from ER Stress (Test 1); conditions: 2.5 μg/ml tunicamycin 6 h, inhibitors 0.2-5 μM, WST-8 viability 48 h after tunicamycin, relative to control
HeLa cells [3] = assay: Assessment of Translation Rates in Stressed Cells (Test 3); conditions: tunicamycin 2.5 μg/ml together with compounds 50 μM, 35S-methionine labelling
HeLa cells [4] = conditions: tunicamycin, cited from earlier work
PPP1R15A (GADD34) = PPP1R15A (GADD34) (Homo sapiens, UniProt O75807); conditions: cited from earlier work
PPP1R15B (CReP) = target: T1, PPP1R15B (CReP) (Homo sapiens, UniProt Q5SWA1); conditions: constitutive PPP1R15B (CReP); cited from earlier work
T1 sequence (Q5SWA1 1-713): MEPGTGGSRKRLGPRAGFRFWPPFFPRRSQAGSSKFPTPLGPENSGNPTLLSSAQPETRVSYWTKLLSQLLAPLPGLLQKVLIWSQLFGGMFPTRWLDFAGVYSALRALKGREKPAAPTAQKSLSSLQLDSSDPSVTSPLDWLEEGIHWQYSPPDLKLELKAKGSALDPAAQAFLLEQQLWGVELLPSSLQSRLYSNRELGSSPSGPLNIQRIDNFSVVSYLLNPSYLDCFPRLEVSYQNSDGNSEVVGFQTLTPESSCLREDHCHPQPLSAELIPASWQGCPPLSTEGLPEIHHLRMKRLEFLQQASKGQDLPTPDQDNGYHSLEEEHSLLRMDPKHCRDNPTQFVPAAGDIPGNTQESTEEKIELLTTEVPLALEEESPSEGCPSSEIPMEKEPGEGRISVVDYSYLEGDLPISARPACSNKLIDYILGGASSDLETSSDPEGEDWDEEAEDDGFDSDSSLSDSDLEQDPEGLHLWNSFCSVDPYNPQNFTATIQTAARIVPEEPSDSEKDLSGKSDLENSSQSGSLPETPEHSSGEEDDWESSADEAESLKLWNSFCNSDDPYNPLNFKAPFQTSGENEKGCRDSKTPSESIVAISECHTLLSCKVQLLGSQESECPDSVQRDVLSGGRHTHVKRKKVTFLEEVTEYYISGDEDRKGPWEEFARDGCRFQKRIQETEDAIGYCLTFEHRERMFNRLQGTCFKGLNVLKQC

non-stressed cells = conditions: cited from earlier work
mutant Huntingtin = conditions: cell-based assays, cited from earlier work
[5] = tested on: Min6 and INS-1 pancreatic beta-cells; conditions: expression in the ER of Min6 and INS-1 cells; cited from earlier work
[6] = tested on: retinal pigment epithelium (RPE); conditions: rat AMD model; cited from earlier work
[7] = tested on: choroidal neovascularization (CNV); conditions: laser-induced rat AMD model; cited from earlier work
choroidal blood flow = conditions: in vivo; cited from earlier work
prion infected mice = conditions: mouse, in vivo; cited from earlier work
P0S63del mice = conditions: cited from earlier work
[8] = tested on: animal models of alpha-synucleinopathy; conditions: two animal models of alpha-synucleinopathy; cited from earlier work
[9] = tested on: G93A-SOD1 transgenic mouse; conditions: cited from earlier work

Chain of PPP1R15A (GADD34) (O75807 whole entry, species assumed): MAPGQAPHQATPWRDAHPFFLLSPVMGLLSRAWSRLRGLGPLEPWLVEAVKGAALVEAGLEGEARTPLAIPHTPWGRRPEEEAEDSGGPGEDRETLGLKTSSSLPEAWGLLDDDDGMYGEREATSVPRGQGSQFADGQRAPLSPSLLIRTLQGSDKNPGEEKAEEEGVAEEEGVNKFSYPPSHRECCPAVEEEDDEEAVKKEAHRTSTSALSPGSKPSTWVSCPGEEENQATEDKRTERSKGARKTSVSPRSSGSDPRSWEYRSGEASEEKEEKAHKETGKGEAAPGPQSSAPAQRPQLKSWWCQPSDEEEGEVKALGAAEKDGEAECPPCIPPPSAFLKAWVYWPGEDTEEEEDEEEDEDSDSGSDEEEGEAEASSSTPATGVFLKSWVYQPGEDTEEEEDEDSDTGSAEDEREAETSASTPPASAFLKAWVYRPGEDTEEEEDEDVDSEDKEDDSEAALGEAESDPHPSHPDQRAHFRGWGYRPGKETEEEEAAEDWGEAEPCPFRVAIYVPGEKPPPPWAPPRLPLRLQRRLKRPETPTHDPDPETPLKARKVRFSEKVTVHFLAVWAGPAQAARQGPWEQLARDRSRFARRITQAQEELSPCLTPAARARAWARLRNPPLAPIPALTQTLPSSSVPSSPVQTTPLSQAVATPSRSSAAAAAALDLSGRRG

| Compound | Test 2 Translation inhibition in non-stressed cells (HeLa cells [1]) | Selectivity assessment Selectivity towards PPP1R15A or PPP1R15B (PPP1R15A or PPP1R15B) | Test 1 Survival following ER stress (increase %) (HeLa cells [2]) | Test 3 Translation attenuation after Tm (HeLa cells [3]) | other results |
| --- | --- | --- | --- | --- | --- |
| N=C(N)N/N=C/c1ccccc1Br [Example 2, 1-[(E)-[(2-bromophenyl)methylidene]amino]-guanidine] | YES | inhibit both PPP1R15A and B | 40% | prolonged | – |
| N=C(N)N/N=C/c1ccccc1F [Example 3, 1-[(E)-[(2-fluorophenyl)methylidene]amino]-guanidine] | YES | – | 80% | prolonded | – |
| Cc1ccccc1/C=N/NC(=N)N [Example 4, 1-[(E)-[(2-methylphenyl)methylidene]amino]guanidine] | YES | inhibit both PPP1R15A and B | 100% | prolonged | – |
| Cc1nnc(N/N=C/c2ccccc2Cl)[nH]c1=O [Example 6, 2-chlorobenzaldehyde (6-methyl-5-oxo-4,5-dihydro-1,2,4-triazin-3-yl)hydrazone] | – | confirmed selective inhibitors of PPP1R15A | 120% | prolonged | – |
| N=C(N)N/N=C/c1ccc(F)cc1Cl [Example 7, 1-[(E)-[(2-chloro-4-fluorophenyl)methylidene]amino]guanidine] | YES | inhibit both PPP1R15A and B | 160% | prolonged | – |
| CC(=O)NC(=N)N/N=C/c1ccccc1Cl [Example 8, N-{N-[(E)-[(2-chlorophenyl)methylidene]amino]carbamimidoyl}acetamide] | YES | inhibit both PPP1R15A and B | 100% | prolonged | – |
| COC(=O)NC(=N)N/N=C/c1ccccc1Cl [Example 9, methyl N-{N-[(E)-[(2-chlorophenyl)methylidene]amino]carbamimidoyl}carbamate] | – | – | 20% | – | – |
| N=C(N)N/N=C/c1ccncc1Cl [Example 13, 1-[(E)-[(3-chloropyridin-4-yl)methylidene]amino]guanidine] | – | – | 60-80% | – | – |
| N=C(N)N/N=C/c1c(F)cccc1Cl [Example 15, 1-[(E)-[(2-chloro-6-fluorophenyl)methylidene]amino]guanidine] | – | – | 160% | prolonged | – |
| N=C(N)N/N=C/c1c(F)cncc1Cl [Example 16, 1-[(E)-[(3-chloro-5-fluoropyridin-4-yl)methylidene]amino]guanidine] | YES | – | 140% | – | – |
| NC(N)=N/N=C/c1c(Cl)cccc1Cl [Guanabenz, 2-(2,6-dichlorobenzylidene)hydrazinecarboximidamide] | – | – | – | – | EC50 (HeLa cells [4]; read-out: median effective concentration (cells surviving ER stress)): ~400 nM; protection of cells from cytotoxic ER stress (in words) (HeLa cells [4]): doubled the number of cells surviving ER stress; binding to PPP1R15A (PPP1R15A (GADD34)): binding to a regulatory subunit of protein phosphatase 1, PPP1R15A (GADD34); binding to PPP1R15B (PPP1R15B (CReP)): does not bind; translation inhibition in non-stressed cells (non-stressed cells): does not inhibit translation in non-stressed cells; mutant huntingtin accumulation (mutant Huntingtin): attenuating accumulation of mutant Huntingtin; mutant huntingtin accumulation (mutant Huntingtin; listed as guanabenz): reduces mutant huntingtin accumulation in cells; protection against lethal effects of Insulin Akita mutant expression [5]: protection against the lethal effects; protection of RPE from NalO3-induced degeneration [6]: significantly protected; development of choroidal neovascularization (CNV) [7]: inhibited the development of choroidal neovascularization (CNV); choroidal blood flow (choroidal blood flow): increased choroidal blood flow markedly; symptoms of prion infected mice (prion infected mice): reduces the symptoms |
| O=C(/C=C/c1ccccc1)NC(NC(=S)Nc1cccc2cccnc12)C(Cl)(Cl)Cl (stereo not shown) [Salubrinal] | – | – | – | – | motor capacity in rotarod analysis (P0S63del mice; P0S63del mice): regained almost normal motor capacity; toxicity (P0S63del mice; mouse, in vivo): toxic; disease manifestations [8]: significantly attenuates disease manifestations; life span [9]: extends the life span |
| Clc1cccc(Cl)c1N=C1NCCN1 [clonidine] | – | – | – | – | protection of cells from cytotoxic ER stress (in words) (HeLa cells [4]): Neither the α2-adrenergic receptor agonist clonidine, nor the α2-adrenergic receptor antagonist efaroxan protected cells |
| CCC1(C2=NCCN2)Cc2ccccc2O1 (stereo not shown) [efaroxan] | – | – | – | – | protection of cells from cytotoxic ER stress (in words) (HeLa cells [4]): Neither the α2-adrenergic receptor agonist clonidine, nor the α2-adrenergic receptor antagonist efaroxan protected cells |
